# Values joined by “and” are separate entries in the source; they are usually repeats but may differ in a detail not shown here. Equal values may be shown once.
# Test system: collagen-induced arthritis
# Experiment: Collagen-induced arthritis (CIA) model: clinical scores and paw volume
# Assay type: in vivo, Lewis rats
# Details: for Percent Inhibition in clinical score (Mean ± SD) / Percent Inhibition in paw volume (Mean ± SD): CIA rats; for Overall Clinical Score: individual animals 1-8
# [1] = Day 0, L paw, group 5 CIA + Compound A 1 mg/kg
# [2] = Day 0, L paw, group 6 CIA + Compound A 3 mg/kg
# [3] = Day 0, L paw, group 7 CIA + Compound A 10 mg/kg
# [4] = Day 0, R paw, group 5 CIA + Compound A 1 mg/kg
# [5] = Day 0, R paw, group 6 CIA + Compound A 3 mg/kg
# [6] = Day 0, R paw, group 7 CIA + Compound A 10 mg/kg
# [7] = Day 0, CIA + Compound A 1 mg/kg
# [8] = Day 0, CIA + Compound A 3 mg/kg
# [9] = Day 0, CIA + Compound A 10 mg/kg
# [10] = Day 6, L paw, group 5 CIA + Compound A 1 mg/kg
# [11] = Day 6, L paw, group 6 CIA + Compound A 3 mg/kg
# [12] = Day 6, L paw, group 7 CIA + Compound A 10 mg/kg
# [13] = Day 6, R paw, group 5 CIA + Compound A 1 mg/kg
# [14] = Day 6, R paw, group 6 CIA + Compound A 3 mg/kg
# [15] = Day 6, R paw, group 7 CIA + Compound A 10 mg/kg
# [16] = Day 6, CIA + Compound A 1 mg/kg
# [17] = Day 6, CIA + Compound A 3 mg/kg
# [18] = Day 6, CIA + Compound A 10 mg/kg
# [19] = Day 12, L paw, group 5 CIA + Compound A 1 mg/kg
# [20] = Day 12, L paw, group 6 CIA + Compound A 3 mg/kg
# [21] = Day 12, L paw, group 7 CIA + Compound A 10 mg/kg
# [22] = Day 12, R paw, group 5 CIA + Compound A 1 mg/kg
# [23] = Day 12, R paw, group 6 CIA + Compound A 3 mg/kg
# [24] = Day 12, R paw, group 7 CIA + Compound A 10 mg/kg
# [25] = Day 12, CIA + Compound A 1 mg/kg
# [26] = Day 12, CIA + Compound A 3 mg/kg
compound,measurement,setting,value
"Cn1cc(-c2ccccc2)c(-c2cn(C)c(=O)c3[nH]c(-c4cnn(C(F)(F)F)c4)cc23)cc1=O [Compound A, 6-methyl-4-(1-methyl-2-oxo-5-phenyl-1,2-dihydropyridin-4-yl)-2-(1-(trifluoromethyl)-1H-pyrazol-4-yl)-1,6-dihydro-7H-pyrrolo[2,3-c]pyridin-7-one]",Reduction in clinical score compared to CIA+placebo,"10 mg/kg PO QD, Day 21",> 70%
same,Reduction in paw volume compared to CIA+placebo,"10 mg/kg PO QD, Day 21",> 70%
same,Anti-inflammatory activity versus CIA placebo and CIA+10 mg/kg GSK620,"1, 3, and 10 mg/kg",superior (statistically)
same,Percent Inhibition in clinical score (Mean ± SD),1 mg/kg,60 ± 21%
same,Percent Inhibition in paw volume (Mean ± SD),1 mg/kg,58 ± 23%
same,Percent Inhibition in clinical score (Mean ± SD),3 mg/kg,70 ± 8%
same,Percent Inhibition in paw volume (Mean ± SD),3 mg/kg,75 ± 12%
same,Average animal paw volume,[1],1.33 mL
same,Average animal paw volume percent change (%),[1],0.00%
same,Average animal paw volume,[2],1.32 mL
same,Average animal paw volume percent change (%),[2],0.00%
same,Average animal paw volume,[3],1.32 mL
same,Average animal paw volume percent change (%),[3],0.00%
same,Average animal paw volume,[4],1.33 mL
same,Average animal paw volume percent change (%),[4],0.00%
same,Average animal paw volume,[5],1.31 mL
same,Average animal paw volume percent change (%),[5],0.00%
same,Average animal paw volume,[6],1.31 mL
same,Average animal paw volume percent change (%),[6],0.00%
same,"Average detailed clinical score, left forelimb",[7],0.00
same,"Average detailed clinical score, left hind limb",[7],0.00
same,"Average detailed clinical score, right forelimb",[7],0.00
same,"Average detailed clinical score, right hind limb",[7],0.00
same,"Average detailed clinical score, score",[7],0.00
same,Average overall clinical score,[7],0
same,Overall Clinical Score,[7],0
same,"Average detailed clinical score, left forelimb",[8],0.00
same,"Average detailed clinical score, left hind limb",[8],0.00
same,"Average detailed clinical score, right forelimb",[8],0.00
same,"Average detailed clinical score, right hind limb",[8],0.00
same,"Average detailed clinical score, score",[8],0.00
same,Average overall clinical score,[8],0
same,Overall Clinical Score,[8],0
same,"Average detailed clinical score, left forelimb",[9],0.00
same,"Average detailed clinical score, left hind limb",[9],0.00
same,"Average detailed clinical score, right forelimb",[9],0.00
same,"Average detailed clinical score, right hind limb",[9],0.00
same,"Average detailed clinical score, score",[9],0.00
same,Average overall clinical score,[9],0
same,Average animal paw volume,[10],1.35 mL
same,Average animal paw volume percent change (%),[10],1.60%
same,Average animal paw volume,[11],1.34 mL
same,Average animal paw volume percent change (%),[11],1.44%
same,Average animal paw volume,[12],1.34 mL
same,Average animal paw volume percent change (%),[12],1.64%
same,Average animal paw volume,[13],1.35 mL
same,Average animal paw volume percent change (%),[13],1.41%
same,Average animal paw volume,[14],1.34 mL
same,Average animal paw volume percent change (%),[14],1.63%
same,Average animal paw volume,[15],1.33 mL
same,Average animal paw volume percent change (%),[15],1.59%
same,"Average detailed clinical score, left forelimb",[16],0.00
same,"Average detailed clinical score, left hind limb",[16],0.00
same,"Average detailed clinical score, right forelimb",[16],0.00
same,"Average detailed clinical score, right hind limb",[16],0.00
same,"Average detailed clinical score, score",[16],0.00
same,Average overall clinical score,[16],0
same,Overall Clinical Score,[16],0
same,"Average detailed clinical score, left forelimb",[17],0.00
same,"Average detailed clinical score, left hind limb",[17],0.00
same,"Average detailed clinical score, right forelimb",[17],0.00
same,"Average detailed clinical score, right hind limb",[17],0.00
same,"Average detailed clinical score, score",[17],0.00
same,Average overall clinical score,[17],0
same,Overall Clinical Score,[17],0
same,"Average detailed clinical score, left forelimb",[18],0.00
same,"Average detailed clinical score, left hind limb",[18],0.00
same,"Average detailed clinical score, right forelimb",[18],0.00
same,"Average detailed clinical score, right hind limb",[18],0.00
same,"Average detailed clinical score, score",[18],0.00
same,Average overall clinical score,[18],0
same,Average animal paw volume,[19],1.38 mL
same,Average animal paw volume percent change (%),[19],4.24%
same,Average animal paw volume,[20],1.37 mL
same,Average animal paw volume percent change (%),[20],4.35%
same,Average animal paw volume,[21],1.36 mL
same,Average animal paw volume percent change (%),[21],3.32%
same,Average animal paw volume,[22],1.42 mL
same,Average animal paw volume percent change (%),[22],6.44%
same,Average animal paw volume,[23],1.36 mL
same,Average animal paw volume percent change (%),[23],3.50%
same,Average animal paw volume,[24],1.37 mL
same,Average animal paw volume percent change (%),[24],4.40%
same,"Average detailed clinical score, left forelimb",[25],0.00
same,"Average detailed clinical score, left hind limb",[25],0.13
same,"Average detailed clinical score, right forelimb",[25],0.25
same,"Average detailed clinical score, right hind limb",[25],0.00
same,"Average detailed clinical score, score",[25],0.38
same,Average overall clinical score,[25],0
same,Overall Clinical Score,"Day 12, CIA + Compound A 1 mg/kg, 1 mg/kg",0 (7×) and 1
same,"Average detailed clinical score, left forelimb",[26],0.00
same,"Average detailed clinical score, left hind limb",[26],0.25
same,"Average detailed clinical score, right forelimb",[26],0.00
same,"Average detailed clinical score, right hind limb",[26],0.25
same,"Average detailed clinical score, score",[26],0.50
same,Average overall clinical score,[26],0
same,Overall Clinical Score,"Day 12, CIA + Compound A 3 mg/kg, 3 mg/kg",0
